Experimental data taken from US20240245670A1, “DOSING REGIMEN AND PHARMACEUTICAL COMBINATION COMPRISING 3-(1-OXOISOINDOLIN-2-YL)PIPERIDINE-2,6-DIONE DERIVATIVES” (Novartis AG, priority 2018, published 2024).
“Also recorded” adds a separate entry of the source.

How the values were obtained:
[1] = system: cynomolgus monkeys; assay: 4-week GLP toxicology study in cynomolgus monkeys; type: in vivo
Method: (§1) The starting dose of I-57 selected for this study is supported by 4-week GLP toxicology studies performed in cynomolgus monkeys. […] GLP toxicity studies identified 30 mg/kg as the HNSTD in monkey and supported a starting dose up to 100 mg QD in human (BSA scaled HED and using a safety factor of 6). The selected dose of 20 mg is anticipated to result in a significant but sub-maximal IKZF2 degradation in human PBMCs and TILs (50-90%), based on PK/PD modeling of I-57 exposure and IKZF2 degradation in cynomolgus PBMCs. More IKZF2 degradation may be required to change downstream biology. Therefore, 20 mg is considered safe. Escalation from this starting dose will facilitate the determination of the minimal required dose which provides optimal IKZF2 degradation to impact downstream biological activity.

[2] = biological target: IKZF2 (Homo sapiens, UniProt Q96SW2+Q9UKS7); assay: Degradation of prolabel-tagged target proteins in HEK293T cells (FIG. 1); type: cell-based; design: prolabel; expressed in transfected cells; host or cells: HEK293T; details: HEK293T cells overexpressing prolabel-tagged target proteins; various concentrations
Excerpt: FIG. 1. is a graph showing the selectivity of Compound I-57 for the degradation of IKZF2 over the other IKAROS family members, IKZF1, IKZF4, and GSPT1 at various concentrations in HEK293T cells overexpressing prolabel-tagged target proteins.
Although the specific transcriptional targets of IKZF2 remain to be defined, IKZF2 binds to and represses transcription from the IL-2 promoter region (Baine 2013). […] Finally, an in vitro assay recapitulating hallmarks of T cell dysfunction/exhaustion, by sequential TCR stimulation of isolated primary human T cells, was used to test the hypothesis that […] would rescue the exhausted phenotype and enhance Teff cell activity. […] In addition to IKZF1, other known cereblon substrates including translation termination factor G1 to S phase transition 1 (GSPT1) are not degraded by I-57 (FIG. 1).

[3] = system: monkey IKZF2; assay: IKZF2 degradation, species relevance (monkey)
Method: as §1

[4] = Toxicology studies incl. 4-week GLP studies in rats and cynomolgus monkeys; type: in vivo; details: from 4-week GLP toxicology studies in rats (30, 100, 300 mg/kg/day) and cynomolgus monkeys (3, 10, 30 mg/kg/day)
Excerpt: (§2) The non-clinical safety profile of I-57 was established in vitro, and in vivo in rats and cynomolgus monkeys in studies up to 4-weeks duration. Based on the outcome of these studies, QTc interval prolongation was identified as the principal safety signal for I-57. There were other toxicities such as diarrhea and vomiting in monkeys, and mortality, clinical signs and target organ toxicities in rats; however, these occurred at exposures far above those expected to result in clinical activity.
Preclinical safety data in 4-week GLP toxicology studies in rats (30, 100 and 300 mg/kg/day) and cynomolgus monkeys (3, 10 and 30 mg/kg/day) provide maximum recommended starting dose (MRSD) of 100 mg in humans. Based on non-clinical animal models including AdT studies, cynomolgus vaccination studies and cynomolgus PK/PD studies (See Example 1) I-57 at 20 mg is expected to result in submaximal IKZF2 degradation in PBMCs and tumor. This is considered safe and will permit PK/PD characterization and determination of the lowest dose of I-57 at which maximal detectable IKZF2 degradation is achieved.

[5] = system: IKZF2 expression in FOXP3+ T cells from PBMCs; assay: PD after single oral dose in cynomolgus monkey: IKZF2 expression by flow cytometry; type: in vivo
Method: FIG. 4 is a graph showing the PK/PD relationship in the cynomolgus monkey after a single oral of 0.01, 0.1 or 1 mg/kg of Compound I-57.
FIG. 5. is a graph showing plasma concentration in the cynomolgus monkey of Compound I-57 and IKZF2 expression (as determined by flow cytometry) in FOXP3+ T cells from PBMCs after a single oral of 0.01, 0.1 or 1 mg/kg of Compound I-57.
The PK/PD relationship of I-57 was examined in cynomolgus monkeys after a single oral dose of 0.01, 0.1 or 1 mg/kg. I-57 plasma concentration and IKZF2 expression (as determined by flow cytometry) in FOXP3+ T cells from PBMCs were determined (FIG. 4 and FIG. 5).
Decreased (percentage change) IKZF2 positive FOXP3-cells, as determined by flow cytometry, were detectable at 4h post dose in the 1 mg/kg and 0.1 mg/kg groups, reaching maximum at 12-24 hrs post-dose and maintaining this maximum for 12-24 hrs.

[6] = Toxicology in rats (5-day and 4-week GLP studies); type: in vivo
Excerpt: as §2
Clinical signs, decreases in body weight and food consumption, and clinical pathology changes reflecting inflammation, renal and liver injury, and stress were generally evident in the pre-terminal animals. Kidney toxicity was evident in rats at doses >100 mg/kg/day and was characterized by increased weight, hematuria, proteinuria, with or without increased blood urea and creatinine, degeneration, regeneration and inflammation at 300 mg/kg/day.
Similar exposure in the clinic would require doses in human of approximately 2,000 and 5,000 mg QD based on the human PK model. Activity is anticipated well below this dose level.

Sequence of IKZF2 (Q9UKS7 whole entry): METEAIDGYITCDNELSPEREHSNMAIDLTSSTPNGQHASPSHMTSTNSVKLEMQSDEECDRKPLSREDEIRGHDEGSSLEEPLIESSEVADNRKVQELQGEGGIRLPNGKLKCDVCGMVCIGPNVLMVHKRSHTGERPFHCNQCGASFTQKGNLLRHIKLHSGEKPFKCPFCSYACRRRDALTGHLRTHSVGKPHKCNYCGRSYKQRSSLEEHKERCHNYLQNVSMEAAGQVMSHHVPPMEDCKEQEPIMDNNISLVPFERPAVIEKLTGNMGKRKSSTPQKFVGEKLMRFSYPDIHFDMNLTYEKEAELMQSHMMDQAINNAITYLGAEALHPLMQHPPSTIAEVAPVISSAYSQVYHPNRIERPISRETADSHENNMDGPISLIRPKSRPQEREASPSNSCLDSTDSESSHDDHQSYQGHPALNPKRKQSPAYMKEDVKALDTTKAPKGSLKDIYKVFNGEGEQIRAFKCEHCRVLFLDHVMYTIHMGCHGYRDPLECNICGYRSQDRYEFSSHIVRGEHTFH
Sequence of IKZF2 (Q96SW2 whole entry): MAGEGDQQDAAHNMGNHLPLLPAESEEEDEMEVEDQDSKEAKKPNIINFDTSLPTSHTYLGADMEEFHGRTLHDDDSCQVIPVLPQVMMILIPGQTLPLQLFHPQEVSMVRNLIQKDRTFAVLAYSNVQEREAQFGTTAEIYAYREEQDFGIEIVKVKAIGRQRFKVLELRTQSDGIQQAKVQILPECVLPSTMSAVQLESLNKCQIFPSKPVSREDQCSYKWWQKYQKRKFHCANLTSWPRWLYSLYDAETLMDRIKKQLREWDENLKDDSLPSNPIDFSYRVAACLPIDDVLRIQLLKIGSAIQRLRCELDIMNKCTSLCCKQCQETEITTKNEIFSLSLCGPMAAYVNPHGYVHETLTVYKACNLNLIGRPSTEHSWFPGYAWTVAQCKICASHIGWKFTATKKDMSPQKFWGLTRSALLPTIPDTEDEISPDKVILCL
Sequence of IKZF2 (Q16531 whole entry partner): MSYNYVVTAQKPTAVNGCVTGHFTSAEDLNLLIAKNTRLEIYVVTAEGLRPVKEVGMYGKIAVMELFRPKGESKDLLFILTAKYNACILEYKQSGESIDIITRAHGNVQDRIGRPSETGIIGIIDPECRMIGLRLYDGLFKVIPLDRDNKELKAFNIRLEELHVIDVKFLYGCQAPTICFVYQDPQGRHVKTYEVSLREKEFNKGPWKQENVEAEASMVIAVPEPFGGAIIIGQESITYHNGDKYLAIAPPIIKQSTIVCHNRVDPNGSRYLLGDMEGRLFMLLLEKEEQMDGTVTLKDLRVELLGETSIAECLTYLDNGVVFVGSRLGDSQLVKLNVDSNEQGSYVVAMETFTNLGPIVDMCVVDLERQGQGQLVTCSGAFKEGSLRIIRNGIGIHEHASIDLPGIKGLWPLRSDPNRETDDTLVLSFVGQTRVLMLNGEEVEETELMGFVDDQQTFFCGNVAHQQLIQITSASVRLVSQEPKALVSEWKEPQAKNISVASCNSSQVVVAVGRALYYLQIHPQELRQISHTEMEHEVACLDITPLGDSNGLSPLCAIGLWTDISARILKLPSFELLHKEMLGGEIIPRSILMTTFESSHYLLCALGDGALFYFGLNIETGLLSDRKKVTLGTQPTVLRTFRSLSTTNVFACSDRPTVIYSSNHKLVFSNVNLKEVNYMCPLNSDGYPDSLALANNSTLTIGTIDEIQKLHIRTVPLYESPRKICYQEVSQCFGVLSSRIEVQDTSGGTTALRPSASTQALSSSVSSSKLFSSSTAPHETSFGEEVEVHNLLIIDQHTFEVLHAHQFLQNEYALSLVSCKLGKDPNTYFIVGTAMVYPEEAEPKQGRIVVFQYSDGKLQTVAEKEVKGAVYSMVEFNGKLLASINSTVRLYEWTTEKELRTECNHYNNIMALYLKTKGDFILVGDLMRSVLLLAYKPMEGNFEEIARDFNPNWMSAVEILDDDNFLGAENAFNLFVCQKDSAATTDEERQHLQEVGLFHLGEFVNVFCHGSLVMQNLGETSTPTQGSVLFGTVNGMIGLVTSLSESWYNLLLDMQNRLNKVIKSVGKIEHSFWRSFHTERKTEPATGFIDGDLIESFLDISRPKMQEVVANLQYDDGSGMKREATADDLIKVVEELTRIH

## O=C1CCC(N2Cc3cc(C4CCN(Cc5ccccc5)CC4)ccc3C2=O)C(=O)N1 (stereo not drawn) [Compound I-57, 3-(5-(1-benzylpiperidin-4-yl)-1-oxoisoindolin-2-yl)piperidine-2,6-dione]
[1]; derived from monkey HNSTD
  supported starting dose in human (BSA scaled HED, safety factor of 6): up to 100 mg QD
[1]; monkey, 4-week GLP toxicity studies
  HNSTD: 30 mg/kg
[2]
  degradation of IKZF2: potent and specific degrader; also recorded: potent and specific degradation
[3]
  degradation of monkey IKZF2: can degrade monkey
[4]
  maximum recommended starting dose (MRSD) in humans: 100 mg
[5]; post dose, 1 mg/kg and 0.1 mg/kg groups
  time at which decreased IKZF2 positive FOXP3 cells were detectable: 4 h
[5]; single oral dose
  duration for which maximum decrease was maintained: 12 to 24 h
[5]; single oral dose of 0.01, 0.1 or 1 mg/kg
  dose dependence of decrease in IKZF2 positive cells: dose dependent
[6]; exposure associated with mortality and toxicity in rats at 300 mg/kg, human PK model
  human dose required for similar exposure (AUC): ~5,000 mg QD
[6]; rat, in vivo, 300 mg/kg/day
  urinary bladder findings: Degenerative changes
[6]; rats
  doses at which kidney toxicity was evident: > 100 mg/kg/day
[6]; rats, females
  doses at which mortality occurred: > 300 mg/kg/day
